Laboratory results published in patent US8426408B2, “Pyrimidine inhibitors of kinases” (AbbVie Inc., priority 2009, dated 2013).

Assays:
Aurora B = biological target: T1, Aurora B (Homo sapiens, UniProt Q96GD4); assay: Aurora B enzyme inhibition (time-resolved fluorescence, histone H3 peptide); assay type: biochemical; details: 1 mM ATP
T1 construct: Active Aurora B enzyme (recombinant residues 1-344)
In short: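 IC50s came from an exponential fit of inhibition against inhibitor concentration, with phosphorylation read as the 665/615 nm time-resolved fluorescence ratio after EDTA stop using Eu-anti-phospho-H3 and SA-APC. The 1 h reaction used Aurora B 1-344 plus GST-INCENP, biotin-histone H3 1-21 peptide and 1 mM ATP in pH 7.4 HEPES buffer.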

Aurora A = biological target: T2, Aurora A (Homo sapiens, UniProt O14965); assay: Aurora A enzyme inhibition (time-resolved fluorescence, STK substrate-2); assay type: biochemical; details: 1 mM ATP
T2 sequence (O14965 1-403): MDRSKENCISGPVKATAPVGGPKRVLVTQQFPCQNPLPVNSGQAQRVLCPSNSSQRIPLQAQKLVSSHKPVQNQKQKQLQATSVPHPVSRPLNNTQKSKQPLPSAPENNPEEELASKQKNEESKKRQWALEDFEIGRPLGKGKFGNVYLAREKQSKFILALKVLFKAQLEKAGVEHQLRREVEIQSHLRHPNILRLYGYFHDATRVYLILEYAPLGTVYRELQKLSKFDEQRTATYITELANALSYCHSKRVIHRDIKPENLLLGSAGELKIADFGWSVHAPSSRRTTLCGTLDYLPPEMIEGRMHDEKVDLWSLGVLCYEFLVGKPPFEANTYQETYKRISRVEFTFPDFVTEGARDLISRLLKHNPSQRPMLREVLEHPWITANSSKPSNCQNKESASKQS
In short: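 Phosphorylation of biotinylated STK substrate-2 at 1 mM ATP, 1 h, Hepes buffer pH 7.4 (MgCl2, sodium orthovanadate, Triton X-100). After EDTA quench, 665/615 nm time-resolved fluorescence ratio read via europium anti-phospho antibody and SA-XL665; IC50 from exponential fit versus inhibitor concentration.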

KDR [1] = biological target: T3, KDR (Homo sapiens, UniProt P35968); assay: KDR HTRF in vitro kinase assay; assay type: biochemical; set-up: purified enzyme (His6-KDR 789-1354, MW 63 kD); His6 (N); details: 1 mM ATP; read-out: KDR enzyme inhibition data (Ki)
In short: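 His6-KDR 789-1354 (7 ng/well) with 0.5 μM biotinylated peptide substrate and 1 mM ATP in HEPES pH 7.1, MgCl2/MnCl2, 60 min at room temperature. EDTA-quenched, detected by streptavidin-XL-665 plus Eu-kryptate anti-phosphotyrosine HTRF after 3 h; IC50 from 620/665 nm ratio.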
Target sequence in this assay (P35968 789-1354): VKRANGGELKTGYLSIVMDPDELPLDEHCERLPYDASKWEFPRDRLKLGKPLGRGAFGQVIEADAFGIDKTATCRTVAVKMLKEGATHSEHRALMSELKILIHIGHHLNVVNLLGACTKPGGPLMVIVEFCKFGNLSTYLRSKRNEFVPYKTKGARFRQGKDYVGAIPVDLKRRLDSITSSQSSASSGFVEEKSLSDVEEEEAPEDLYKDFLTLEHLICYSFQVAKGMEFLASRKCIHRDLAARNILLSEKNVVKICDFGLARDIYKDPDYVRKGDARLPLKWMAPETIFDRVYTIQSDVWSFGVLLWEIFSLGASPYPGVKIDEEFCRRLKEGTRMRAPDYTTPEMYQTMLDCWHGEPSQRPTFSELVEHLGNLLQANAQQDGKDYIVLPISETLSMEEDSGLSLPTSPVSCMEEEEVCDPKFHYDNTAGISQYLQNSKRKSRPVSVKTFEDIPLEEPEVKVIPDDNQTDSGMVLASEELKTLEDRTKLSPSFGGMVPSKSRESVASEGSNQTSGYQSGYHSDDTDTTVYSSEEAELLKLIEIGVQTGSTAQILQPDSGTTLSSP

KDR [2] = biological target: T3, KDR; assay: KDR cellular assay (KDR receptor phosphorylation ELISA); assay type: cell-based; set-up: expressed in transfected cells; host or cells: 3T3 (embryonic mouse) cells; details: KDR transfected 3T3 (embryonic mouse) cells, VEGF stimulated; read-out: IC50 inhibition of KDR phosphorylation
Description: The ability of compounds to inhibit KDR receptor phosphorylation in cells was measured by ELISA following the protocol outlined below.
KDR transfected 3T3 (embryonic mouse) cells added to 96-well tissue culture plates at 20,000 cells/well.
Plates were covered and placed in a 37° C. humidified incubator with 5% CO2 overnight, to allow cells to adhere.
Coating solution was prepared: 500 l/vial PBS was added to 2 vials of anti-KDR antibody, then 1 ml solubilized anti-KDR antibody into 29.0 ml bicarbonate buffer. Coating solution was added to all wells at 150 µl/well (final amount anti-KDR=1 µg/well) and placed at 4° C. overnight.
Blocking solution (2.1 g dry milk+42 ml PBS=5% milk in PBS) was placed on a stir plate for 30 min.
Assay plates were washed twice with PBST, and 200 µl/well blocking solution was added to all wells. Assay plates were covered with plate sealers and placed in a 37° C. microplate chamber until just before cell lysate transfer.
Compound stocks were thawed or prepared in DMSO as 5 mM stocks.
Dilution medium (DM, 1% DMSO in DMEM) and compounds were diluted by half-log increments for concentration response analysis.
Conditioned media was dumped from the tissue culture plates, and plates were blotted dry.
Standard solution in DM, compound dilutions in DM, or DM (for high control, negative control, and reference wells) were added to the tissue culture plates, 25 µl/well. Each pair of tissue culture plates was prepared with the same compounds, solutions, and layout; and will be combined later; Tissue culture plates were covered and placed in the 37° C. microplate chamber for 20 min.
VEGF solution was prepared: 110 l VEGF stock+10.89 ml DM=100 ng/ml VEGF
VEGF solution or DM (for reference wells) was added to the tissue culture plates, 25 μl/well.
Tissue culture plates were covered and placed in the 37° C. microplate chamber for 10 min.
RIPA buffer was prepared (240 l NaVO3 stock+240 l PIC stock+24 l NaF stock+23.496 ml RIPA base) and added to the tissue culture plates, 50 µl/well.
Tissue culture plates were covered and placed on a Labline plate shaker for 10 min (speed about 5).
Assay plates were washed twice with PBST.
Cell lysates from matching wells of each pair of tissue culture plates were combined to =200 µl/well, and were pipetted up and down to mix. Cell lysates were transferred to the assay plates using the same layouts, 170 µl/well.
Assay plates were covered with plate sealers and placed on a Labline plate shaker for 2 hr (speed about 5).
Assay plates were washed 5 times with PBST.
Biotin antibody solution was prepared (16 l biotin antibody stock+32 ml PBST=2000× dilution) and added to the assay plates, 150 µl/well.
Assay plates were covered with plate sealers and placed on a Labline plate shaker for 90 min
Streptavidin-HRP solution was prepared (16 l streptavidin-HRP stock+32 ml PBST=2000× dilution) and added to the assay plates, 150 µl/well.
Assay plates were covered with plate sealers and placed on a Labline plate shaker for 60 min
Substrate was added to the assay plates, 100 µl/well.
As assay plates developed, the plates were each monitored on a Molecular Devices Spectramax set to 650 nm, until the signal in the high control wells was around 0.6 OD and the signal in the negative control wells was around 0.1-0.15 OD.
Stop solution was added to the assay plates, 100 µl/well.
The plates were read on a Molecular Devices Spectramax set to 450 nm.
Data was calculated by Assay Explorer, using same-plate high control wells as 0% and reference standard wells as 100% inhibition of KDR phosphorylation. IC50 values were calculated by non-linear regression analysis of the concentration response data.
Target sequence in this assay (P35968 20-1356): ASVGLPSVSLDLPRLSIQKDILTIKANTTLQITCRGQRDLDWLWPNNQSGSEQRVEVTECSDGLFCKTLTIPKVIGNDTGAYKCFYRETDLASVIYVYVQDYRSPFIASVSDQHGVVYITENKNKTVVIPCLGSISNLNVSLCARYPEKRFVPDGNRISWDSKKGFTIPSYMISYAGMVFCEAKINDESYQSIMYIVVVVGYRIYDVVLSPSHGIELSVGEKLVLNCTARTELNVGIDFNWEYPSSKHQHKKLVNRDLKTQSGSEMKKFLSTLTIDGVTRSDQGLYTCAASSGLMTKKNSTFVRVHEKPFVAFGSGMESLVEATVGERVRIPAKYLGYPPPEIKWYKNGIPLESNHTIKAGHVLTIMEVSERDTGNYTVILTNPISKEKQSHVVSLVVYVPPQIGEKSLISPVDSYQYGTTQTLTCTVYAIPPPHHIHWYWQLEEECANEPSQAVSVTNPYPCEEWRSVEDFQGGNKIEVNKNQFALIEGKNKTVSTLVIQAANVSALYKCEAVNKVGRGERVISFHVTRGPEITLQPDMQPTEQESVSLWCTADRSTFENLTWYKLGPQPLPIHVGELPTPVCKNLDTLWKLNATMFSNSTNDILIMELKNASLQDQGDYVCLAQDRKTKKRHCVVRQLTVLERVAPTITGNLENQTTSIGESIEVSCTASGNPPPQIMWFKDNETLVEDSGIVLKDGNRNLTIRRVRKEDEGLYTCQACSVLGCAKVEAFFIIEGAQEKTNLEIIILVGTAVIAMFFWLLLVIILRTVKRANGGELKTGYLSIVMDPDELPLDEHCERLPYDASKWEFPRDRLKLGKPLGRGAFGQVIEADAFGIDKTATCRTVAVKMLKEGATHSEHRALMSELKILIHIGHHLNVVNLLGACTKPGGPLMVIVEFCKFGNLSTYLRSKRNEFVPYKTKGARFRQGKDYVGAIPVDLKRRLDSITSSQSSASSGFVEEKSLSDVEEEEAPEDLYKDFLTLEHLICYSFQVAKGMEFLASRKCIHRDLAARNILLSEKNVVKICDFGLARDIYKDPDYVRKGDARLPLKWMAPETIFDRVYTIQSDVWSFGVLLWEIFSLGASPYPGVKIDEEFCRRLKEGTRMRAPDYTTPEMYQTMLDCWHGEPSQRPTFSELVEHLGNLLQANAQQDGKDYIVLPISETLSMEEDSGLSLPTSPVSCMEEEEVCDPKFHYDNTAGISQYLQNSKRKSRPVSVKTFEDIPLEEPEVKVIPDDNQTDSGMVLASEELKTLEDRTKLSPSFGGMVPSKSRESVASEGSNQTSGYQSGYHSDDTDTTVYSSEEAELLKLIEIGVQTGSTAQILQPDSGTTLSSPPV

T1 sequence (Q96GD4 whole entry, the tested form may be a part): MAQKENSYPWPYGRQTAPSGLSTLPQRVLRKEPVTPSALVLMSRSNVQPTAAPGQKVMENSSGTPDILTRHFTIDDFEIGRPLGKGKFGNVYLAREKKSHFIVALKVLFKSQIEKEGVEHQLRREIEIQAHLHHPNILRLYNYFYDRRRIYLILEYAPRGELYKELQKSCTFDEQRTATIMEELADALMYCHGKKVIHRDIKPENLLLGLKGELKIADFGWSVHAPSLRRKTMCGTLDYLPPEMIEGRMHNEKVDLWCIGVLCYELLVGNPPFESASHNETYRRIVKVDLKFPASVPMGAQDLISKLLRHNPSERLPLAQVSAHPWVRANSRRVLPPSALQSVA
T1 sequence (Q9NQS7 826-918 partner limits assumed): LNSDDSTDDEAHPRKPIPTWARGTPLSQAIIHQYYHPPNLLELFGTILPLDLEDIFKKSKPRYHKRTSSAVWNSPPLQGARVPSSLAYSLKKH

SMILES | Ki (Aurora B) [nM] | Ki (Aurora A) [nM] | Ki (KDR [1]) [nM] | IC50 (KDR [2]) [nM]
Cc1nn(C)c(C)c1Nc1ncc(Br)c(N[C@H]2[C@@H](C(N)=O)[C@@H]3C=C[C@H]2C3)n1 [Example 128, (1S,2S,3R,4R)-3-({5-bromo-2-[(1,3,5-trimethyl-1H-pyrazol-4-yl)amino]pyrimidin-4-yl}amino)bicyclo[2.2.1]hept-5-ene-2-carboxamide] | 100 to 1000 | 100 to 1000 | 100 to 1000 | 100 to 1000
Cn1cc(Nc2ncc(Cl)c(Nc3ccccc3C3(O)CCOCC3)n2)cn1 [Example 133, 4-[2-({5-chloro-2-[(1-methyl-1H-pyrazol-4-yl)amino]pyrimidin-4-yl}amino)phenyl]tetrahydro-2H-pyran-4-ol] | < 100 | < 100 | 100 to 1000 | 100 to 1000
CC(C)NC(=O)[C@H]1CCC[C@H]1Nc1nc(Nc2cnn(CCN3CCOCC3)c2)ncc1Cl [Example 164, (1S,2R)-2-{[5-chloro-2-({1-[2-(morpholin-4-yl)ethyl]-1H-pyrazol-4-yl}amino)pyrimidin-4-yl]amino}-N-isopropylcyclopentanecarboxamide] | < 100 | < 100 | 100 to 1000 | 100 to 1000
CCn1cc(Nc2ncc(Cl)c(N[C@H]3[C@@H](C(N)=O)C[C@H]4C[C@@H]3C4(C)C)n2)cn1 [Example 166, (1R,2R,3S,5R)-2-({5-chloro-2-[(1-ethyl-1H-pyrazol-4-yl)amino]pyrimidin-4-yl}amino)-6,6-dimethylbicyclo[3.1.1]heptane-3-carboxamide] | < 100 | < 100 | < 100 | 100 to 1000
OCCn1cc(Nc2ncc(Cl)c(Nc3ccc4[nH]ncc4c3)n2)cn1 [Example 180, 2-(4-{[5-chloro-4-(1H-indazol-5-ylamino)pyrimidin-2-yl]amino}-1H-pyrazol-1-yl)ethanol] | < 100 | < 100 | < 100 | 100 to 1000
CCn1cc(Nc2ncc(Br)c(N[C@H]3[C@@H](C(N)=O)C[C@H]4C[C@@H]3C4(C)C)n2)cn1 [Example 183, (1R,2R,3S,5R)-2-({5-bromo-2-[(1-ethyl-1H-pyrazol-4-yl)amino]pyrimidin-4-yl}amino)-6,6-dimethylbicyclo[3.1.1]heptane-3-carboxamide] | < 100 | < 100 | < 100 | 100 to 1000
Cc1c(Nc2ncc(Cl)c(N[C@H]3[C@@H](C(N)=O)C[C@H]4C[C@@H]3C4(C)C)n2)cnn1C [Example 184, (1R,2R,3S,5R)-2-({5-chloro-2-[(1,5-dimethyl-1H-pyrazol-4-yl)amino]pyrimidin-4-yl}amino)-6,6-dimethylbicyclo[3.1.1]heptane-3-carboxamide] | < 100 | < 100 | < 100 | 100 to 1000
Cc1c(Nc2ncc(Br)c(N[C@H]3[C@@H](C(N)=O)C[C@H]4C[C@@H]3C4(C)C)n2)cnn1C [Example 185, (1R,2R,3S,5R)-2-({5-bromo-2-[(1,5-dimethyl-1H-pyrazol-4-yl)amino]pyrimidin-4-yl}amino)-6,6-dimethylbicyclo[3.1.1]heptane-3-carboxamide] | < 100 | < 100 | < 100 | 100 to 1000
CC1(C)[C@H]2C[C@H](C(N)=O)[C@H](Nc3nc(Nc4cnn(Cc5ccccc5)c4)ncc3Cl)[C@@H]1C2 [Example 187, (1R,2R,3S,5R)-2-({2-[(1-benzyl-1H-pyrazol-4-yl)amino]-5-chloropyrimidin-4-yl}amino)-6,6-dimethylbicyclo[3.1.1]heptane-3-carboxamide] | < 100 | < 100 | < 100 | 100 to 1000

Second part, the compound after the results:

Ki (Aurora B) [nM] | Ki (Aurora A) [nM] | Ki (KDR [1]) [nM] | IC50 (KDR [2]) [nM] | SMILES
< 100 | < 100 | < 100 | 100 to 1000 | Cn1cc(Nc2ncc(Cl)c(Nc3ccccc3C(C)(C)O)n2)cn1 [Example 138, 2-[2-({5-chloro-2-[(1-methyl-1H-pyrazol-4-yl)amino]pyrimidin-4-yl}amino)phenyl]propan-2-ol]
< 100 | < 100 | < 100 | 100 to 1000 | Cn1cc(Nc2ncc(Cl)c(Nc3ccccc3CO)n2)cn1 [Example 145, [2-({5-chloro-2-[(1-methyl-1H-pyrazol-4-yl)amino]pyrimidin-4-yl}amino)phenyl]methanol]
< 100 | < 100 | 100 to 1000 | 100 to 1000 | Cn1cc(Nc2ncc(C(F)(F)F)c(Nc3sccc3C(N)=O)n2)cn1 [Example 152, 2-({2-[(1-methyl-1H-pyrazol-4-yl)amino]-5-(trifluoromethyl)pyrimidin-4-yl}amino)thiophene-3-carboxamide]
< 100 | < 100 | 100 to 1000 | 100 to 1000 | Cn1cc(Nc2ncc(C(F)(F)F)c(Nc3cn(C)nc3C(N)=O)n2)cn1 [Example 153, 1-methyl-4-({2-[(1-methyl-1H-pyrazol-4-yl)amino]-5-(trifluoromethyl)pyrimidin-4-yl}amino)-1H-pyrazole-3-carboxamide]
< 100 | < 100 | < 100 | 100 to 1000 | Cn1cc(Nc2ncc(Cl)c(Nc3ccc4[nH]ncc4c3)n2)cn1 [Example 175, 5-chloro-N^4-(1H-indazol-5-yl)-N^2-(1-methyl-1H-pyrazol-4-yl)pyrimidine-2,4-diamine]
< 100 | < 100 | < 100 | 100 to 1000 | Cn1cc(Nc2ncc(Br)c(N[C@H]3[C@@H](C(N)=O)C[C@H]4C[C@@H]3C4(C)C)n2)cn1 [Example 182, (1R,2R,3S,5R)-2-({5-bromo-2-[(1-methyl-1H-pyrazol-4-yl)amino]pyrimidin-4-yl}amino)-6,6-dimethylbicyclo[3.1.1]heptane-3-carboxamide]
